Values quoted from earlier work as cited in paper PMC4360375 (Journal of Medicinal Chemistry, 2015).

Tested on: GABA uptake, rat synaptosome
Settings: literature data set; ref 10.1021/jm981027k; cited from earlier work
In the case of COc1cccc(/C(=N/OCCN2CCC[C@@H](C(=O)O)C2)c2sccc2C)c1 [An_1999/3_86, s1ccc(C)c1\C(=N/OCCN1C[C@@H](CCC1)C(O)=O)\c1cc(OC)ccc1], the pIC50 is given as 7.046.
In the case of CCc1ccsc1C(=NOCCN1CCC[C@@H](C(=O)O)C1)c1sccc1CC [An_1999/3_87, s1ccc(CC)c1\C(=N\OCCN1C[C@@H](CCC1)C(O)=O)\c1sccc1CC], the pIC50 is given as 7.046.
In the case of CCc1ccccc1C(=NOCCN1CCC=C(C(=O)O)C1)c1ccccc1CC [An_1999/3_88, O(\N=C(\c1ccccc1CC)/c1ccccc1CC)CCN1CC(=CCC1)C(O)=O], the pIC50 is listed as 6.745.
For Cc1ccccc1/C(=N\OCCN1CCC[C@@H](C(=O)O)C1)c1ccccc1F [An_1999/3_89, Fc1ccccc1/C(=N/OCCN1C[C@@H](CCC1)C(O)=O)/c1ccccc1C], the pIC50 is given as 7.398.
In the case of Cc1ccccc1/C(=N\OCCN1CCC[C@@H](C(=O)O)C1)c1ccccc1Cl [An_1999/3_90, Clc1ccccc1/C(=N/OCCN1C[C@@H](CCC1)C(O)=O)/c1ccccc1C], the pIC50 is given as 6.699.
In the case of Cc1ccccc1/C(=N\OCCN1CCC[C@H](C(=O)O)C1)c1cccc(Cl)c1 [An_1999/3_91, Clc1cc(ccc1)/C(=N/OCCN1C[C@H](CCC1)C(O)=O)/c1ccccc1C], the pIC50 is given as 7.046.
In the case of Cc1ccccc1/C(=N\OCCN1CCC=C(C(=O)O)C1)c1cccc(Cl)c1 [An_1999/3_92, Clc1cc(ccc1)/C(=N/OCCN1CC(=CCC1)C(O)=O)/c1ccccc1C], the pIC50 is listed as 6.824.
In the case of O=C(O)[C@@H]1CCCN(CCON=C(c2cccc(Cl)c2)c2cccc(Cl)c2)C1 [An_1999/3_93, Clc1cc(ccc1)\C(=N\OCCN1C[C@@H](CCC1)C(O)=O)\c1cc(Cl)ccc1], the pIC50 is listed as 6.509.
For O=C(O)[C@@H]1CCCN(CCON=C(c2ccc(F)cc2Cl)c2ccc(F)cc2Cl)C1 [An_1999/3_94, Clc1cc(F)ccc1\C(=N\OCCN1C[C@@H](CCC1)C(O)=O)\c1ccc(F)cc1Cl], the pIC50 is listed as 7.
In the case of CN1CCC[C@@H]1/C(=N\OCCN1CCC[C@@H](C(=O)O)C1)c1ccccc1 [An_1999/3_95, O(\N=C(/[C@@H]1N(CCC1)C)\c1ccccc1)CCN1C[C@@H](CCC1)C(O)=O], the pIC50 is listed as 7.222.
For Cc1ccccc1/C(=C\OCCN1CCC[C@@H](C(=O)O)C1)c1ccccc1 [An_1999/3_96, O(\C=C(/c1ccccc1C)\c1ccccc1)CCN1C[C@@H](CCC1)C(O)=O], the pIC50 is given as 7.699.
For Cc1ccccc1/C(=C/OCCN1CCC[C@@H](C(=O)O)C1)c1ccccc1 [An_1999/3_97, O(\C=C(\c1ccccc1C)/c1ccccc1)CCN1C[C@@H](CCC1)C(O)=O], the pIC50 is given as 7.301.
In the case of Cc1ccccc1/C(=C\OCCN1CCC[C@@H](C(=O)O)C1)c1ccc(F)cc1C [An_1999/3_99, Fc1cc(C)c(cc1)\C(=C\OCCN1C[C@@H](CCC1)C(O)=O)\c1ccccc1C], the pIC50 is given as 7.523.
For Cc1cc(F)ccc1C(=COCCN1CCC=C(C(=O)O)C1)c1ccc(F)cc1C [An_1999/3_100, Fc1cc(C)c(cc1)\C(=C\OCCN1CC(=CCC1)C(O)=O)\c1ccc(F)cc1C], the pIC50 is given as 7.097.
In the case of Cc1ccccc1/C(=C\OCCN1CCC[C@@H](C(=O)O)C1)c1ccccc1Cl [An_1999/3_101, Clc1ccccc1/C(=C/OCCN1C[C@@H](CCC1)C(O)=O)/c1ccccc1C], the pIC50 is listed as 8.
For COc1cccc(/C(=C/OCCN2CCC[C@@H](C(=O)O)C2)c2ccccc2C)c1 [An_1999/3_102, O(C)c1cc(ccc1)/C(=C/OCCN1C[C@@H](CCC1)C(O)=O)/c1ccccc1C], the pIC50 is listed as 7.097.
In the case of CCc1ccccc1C(=COCCN1CCC[C@@H](C(=O)O)C1)c1ccccc1CC [An_1999/3_103, O(\C=C(\c1ccccc1CC)/c1ccccc1CC)CCN1C[C@@H](CCC1)C(O)=O], the pIC50 is listed as 7.523.
For CCc1ccccc1C(=COCCN1CCC=C(C(=O)O)C1)c1ccccc1CC [An_1999/3_104, O(\C=C(\c1ccccc1CC)/c1ccccc1CC)CCN1CC(=CCC1)C(O)=O], the pIC50 is listed as 7.301.
In the case of O=C(O)C1=CCCN(CCOC=C(c2cccc(F)c2)c2cccc(F)c2)C1 [An_1999/3_105, Fc1cc(ccc1)\C(=C\OCCN1CC(=CCC1)C(O)=O)\c1cc(F)ccc1], the pIC50 is given as 6.456.
